Source: patent US11098010B2 (priority 2017, dated 2021)
pEC50: −log10 of the molar value. Structures can show the parent of a compound that is named as a salt.

These compounds were tested on HBV rcDNA in HepDE19 cells (assay: HepDE19 assay with bDNA quantitation of HBV rcDNA). Settings: HepDE19 cells, inhibition of rcDNA formation, 7 day incubation, top concentration 25 μM; read-out: DE-19 bDNA EC50.
Assay type: cell-based, hepatitis B virus (HBV)
O=C(N[C@H]1CCc2c(C(=O)Nc3ccc(F)c(Cl)c3)ccc(F)c21)OCc1nnco1 [Compound 231, O-(1,3,4-oxadiazol-2-yl)methyl, N-(S)-(4-((3-chloro-4-fluorophenyl)carbamoyl)-7-fluoro-2,3-dihydro-1H-inden-1-yl) carbamate] was tested, and the pEC50 was 6.89.
COC(=O)NC1CC(C)(C)c2c(C(=O)Nc3ccc(F)c(Cl)c3)ccc(F)c21 (centres unmarked) [Compound 282, O-methyl, N-(4-((3-chloro-4-fluorophenyl)carbamoyl)-7-fluoro-3,3-dimethyl-2,3-dihydro-1H-inden-1-yl) carbamate] was tested, and the pEC50 was 4.82.
Work on O=C(Nc1ccc(F)c(Cl)c1)c1ccc(F)c2c1CCC21NC(=O)N(Cc2ccccn2)C1=O (centres unmarked) [Compound 260, N-(3-chloro-4-fluoro-phenyl)-7-fluoro-2,5-dioxo-1-(2-pyridylmethyl)spiro [imidazolidine-4,1′-indane]-4′-carboxamide] yielded a pEC50 of 4.89.
For COC(=O)NC1(C)CCc2c(C(=O)Nc3ccc(F)c(Cl)c3)ccc(F)c21 (centres unmarked) [Compound 214, O-methyl, N-(4-((3-chloro-4-fluorophenyl)carbamoyl)-7-fluoro-1-methyl-2,3-dihydro-1H-inden-1-yl) carbamate], the pEC50 was 5.59.
With COC(=O)NC1CSc2c(C(=O)Nc3ccc(F)c(Cl)c3)cccc21 (centres unmarked) [Compound 29, O-methyl, N-(7-((3-chloro-4-fluorophenyl)carbamoyl)-2,3-dihydrobenzo[b]thiophen-3-yl) carbamate] the pEC50 was 5.80.
With O=C(NC1CSc2c(C(=O)Nc3ccc(F)c(F)c3)ccc(F)c21)OCc1ccccn1 (centres unmarked) [Compound 63, O-Pyridin-2-ylmethyl, N-(7-((3,4-difluorophenyl)carbamoyl)-4-fluoro-2,3-dihydrobenzo[b]thiophen-3-yl) carbamate] the pEC50 was < 4.60.
With O=C(NC1CSc2c(C(=O)Nc3ccc(F)c(Cl)c3)cccc21)OCc1ccccn1 (centres unmarked) [Compound 28, O-pyridin-2-ylmethyl, N-(7-((3-chloro-4-fluorophenyl)carbamoyl)-2,3-dihydrobenzo[b]thiophen-3-yl) carbamate] the pEC50 was 6.12.

Same assay, conditions: Hepatitis B virus, HepDE19, 168 h, HepDE19 cells, inhibition of rcDNA formation, 7 day incubation, top concentration 25 μM; read-out: DE-19 bDNA EC50
O=C(N[C@H]1CCc2c(C(=O)Nc3ccc(F)c(Cl)c3)ccc(F)c21)OCc1ccccn1 [Compound 32, O-Pyridin-2-ylmethyl, N—(S)-(4-((3-chloro-4-fluorophenyl)carbamoyl)-7-fluoro-2,3-dihydro-1H-inden-1-yl) carbamate] gave a pEC50 of 6.96.
Compound Cn1ccc(S(=O)(=O)N[C@H]2CCc3c(C(=O)Nc4ccc(F)c(Cl)c4)ccc(F)c32)n1 [Compound 101, (S)—N-(3-Chloro-4-fluorophenyl)-7-fluoro-1-((1-methyl-1H-pyrazole)-3-sulfonamido)-2,3-dihydro-1H-indene-4-carboxamide] has a pEC50 of 6.14.
O=C(Nc1ccc(F)c(Cl)c1)c1cccc2c1CN(CCO)S2(=O)=O [Compound 276, N-(3-Chloro-4-fluorophenyl)-2-(2-hydroxyethyl)-2,3-dihydrobenzo[d]isothiazole-4-carboxamide 1,1-dioxide] showed a pEC50 of 5.85.
Compound COCCOC(=O)N[C@H]1CCc2c(C(=O)Nc3ccc(F)c(Cl)c3)ccc(F)c21 [Compound 111, O-2-Methoxyethyl, N—(S)-(4-((3-chloro-4-fluorophenyl)carbamoyl)-7-fluoro-2,3-dihydro-1H-inden-1-yl) carbamate] has a pEC50 of 6.82.
O=C(Nc1ccc(F)c(Cl)c1)c1cccc2c1CC[C@@H]2NS(=O)(=O)C1CC1 [Compound 216, (S)—N-(3-chloro-4-fluorophenyl)-1-(cyclopropanesulfonamido)-2,3-dihydro-1H-indene-4-carboxamide] gave a pEC50 of 7.40.
For CC(C)(C)[S@+]([O-])N[C@H]1CCc2c(C(=O)Nc3ccc(F)c(Cl)c3)ccc(F)c21 [Compound 280, (S)-1-(((S)-tert-Butylsulfinyl)amino)-N-(3-chloro-4-fluorophenyl)-7-fluoro-2,3-dihydro-1H-indene-4-carboxamide], the pEC50 was 5.34.
O=C(N[C@H]1CCc2c(C(=O)Nc3ccc(F)c(Cl)c3)ccc(F)c21)OCc1cnco1 [Compound 95, O-Oxazol-5-ylmethyl, N—(S)-(4-((3-chloro-4-fluorophenyl)carbamoyl)-7-fluoro-2,3-dihydro-1H-inden-1-yl) carbamate] gave a pEC50 of 7.22.
With N#CCCCOC(=O)N[C@H]1CCc2c(C(=O)Nc3ccc(F)c(Cl)c3)ccc(F)c21 [Compound 256, O—(S)-3-Cyanopropyl, N-4-(3-chloro-4-fluorophenylcarbamoyl)-7-fluoro-2,3-dihydro-1H-inden-1-yl carbamate] the pEC50 was 6.62.
Compound O=C1CC[C@@H](OC(=O)N[C@H]2CCc3c(C(=O)Nc4ccc(F)c(Cl)c4)ccc(F)c32)CN1 [Compound 199, O—(R)-6-Oxopiperidin-3-yl, N—((S)-4-((3-chloro-4-fluorophenyl)carbamoyl)-7-fluoro-2,3-dihydro-1H-inden-1-yl)carbamate] has a pEC50 of 6.60.
Work on O=C(Nc1ccc(F)c(Cl)c1)c1cccc2c1CNS2(=O)=O [Compound 275, N-(3-Chloro-4-fluorophenyl)-2,3-dihydrobenzo[d]isothiazole-4-carboxamide-1,1-dioxide] yielded a pEC50 of 6.60.
O=C(N[C@H]1CCc2c(C(=O)Nc3ccc(F)c(Cl)c3)ccc(F)c21)OCc1ccncn1 [Compound 85, O-Pyrimidin-4-ylmethyl, N—(S)-(4-((3-chloro-4-fluorophenyl)carbamoyl)-7-fluoro-2,3-dihydro-1H-inden-1-yl) carbamate] gave a pEC50 of 6.24.
With N#CCCOC(=O)N[C@H]1CCc2c(C(=O)Nc3ccc(F)c(Cl)c3)ccc(F)c21 [Compound 255, O—(S)-2-Cyanoethyl, N-4-(3-chloro-4-fluorophenylcarbamoyl)-7-fluoro-2,3-dihydro-1H-inden-1-yl carbamate] the pEC50 was 7.10.

Same assay, conditions: Hepatitis B virus, HepDE19, 168 h, read-out: DE-19 bDNA EC50 (μM), HepDE19 cells, inhibition of rcDNA formation, 7 day incubation, top concentration 25 μM
O=C(N[C@H]1CCc2c(C(=O)Nc3ccc(F)c(Cl)c3)cccc21)OCc1ccccn1 [Compound 17] showed an EC50 of 0.17 µM.
Compound Cc1cc(C)nc(N[C@H]2CCc3c(C(=O)Nc4ccc(F)c(Cl)c4)ccc(F)c32)n1 [Compound 164, (S)—N-(3-Chloro-4-fluorophenyl)-1-((4,6-dimethylpyrimidin-2-yl)amino)-7-fluoro-2,3-dihydro-1H-indene-4-carboxamide] has an EC50 of 1 µM.
COc1cccc(COC(=O)N[C@H]2CCc3c(C(=O)Nc4ccc(F)c(Cl)c4)ccc(F)c32)n1 [Compound 44, O-(6-Methoxypyridin-2-yl)methyl, N—(S)-(4-((3-chloro-4-fluorophenyl)carbamoyl)-7-fluoro-2,3-dihydro-1H-inden-1-yl) carbamate] was tested, and the EC50 was 0.38 µM.
In the case of O=C(N[C@H]1CCc2c(C(=O)Nc3ccc(F)c(Cl)c3)ccc(F)c21)OCc1ncccc1F [Compound 138, O-(3-Fluoropyridin-2-yl)methyl, N—(S)-(4-((3-chloro-4-fluorophenyl)carbamoyl)-7-fluoro-2,3-dihydro-1H-inden-1-yl) carbamate], the EC50 was 0.16 µM.
O=C(N[C@H]1CCc2c(C(=O)Nc3ccc(F)c(Cl)c3)ccc(F)c21)OCCCn1ccnc1 [Compound 125, O-3-(1H-Imidazol-1-yl)propyl, N—(S)-(4-((3-chloro-4-fluorophenyl)carbamoyl)-7-fluoro-2,3-dihydro-1H-inden-1-yl) carbamate Hydrochloride] gave an EC50 of 0.28 µM.
With O=C(N[C@H]1CCc2c(C(=O)Nc3ccc(F)c(Cl)c3)ccc(F)c21)OCC1CS(=O)(=O)CCN1 (stereo partly drawn) [Compound 177, O-(1,1-Dioxidothiomorpholin-3-yl)methyl, N—((S)-4-((3-chloro-4-fluorophenyl)carbamoyl)-7-fluoro-2,3-dihydro-1H-inden-1-yl) carbamate Hydrochloride] the EC50 was 0.5 µM.
For COc1cnc(N[C@H]2CCc3c(C(=O)Nc4ccc(F)c(Cl)c4)ccc(F)c32)nc1 [Compound 49, (S)—N-(3-Chloro-4-fluorophenyl)-7-fluoro-1-((5-methoxypyrimidin-2-yl)amino)-2,3-dihydro-1H-indene-4-carboxamide], the EC50 was 0.17 µM.
In the case of O=C(N[C@H]1CCc2c(C(=O)Nc3ccc(F)c(Cl)c3)ccc(F)c21)OCCN1CCOCC1 [Compound 153, O-2-Morpholinoethyl, N—(S)-(4-((3-chloro-4-fluorophenyl)carbamoyl)-7-fluoro-2,3-dihydro-1H-inden-1-yl) carbamate], the EC50 was 0.47 µM.
N#Cc1ccc(COC(=O)N[C@H]2CCc3c(C(=O)Nc4ccc(F)c(Cl)c4)ccc(F)c32)nc1 [Compound 172, O-(5-Cyanopyridin-2-yl)methyl, N—(S)-(4-((3-chloro-4-fluorophenyl)carbamoyl)-7-fluoro-2,3-dihydro-1H-inden-1-yl) carbamate] gave an EC50 of 0.19 µM.

Same assay, conditions: read-out: DE-19 bDNA EC50; HepDE19 cells, inhibition of rcDNA formation, 7 day incubation, top concentration 25 μM
With CNC(=O)NC1c2c(F)ccc(C(=O)Nc3ccc(F)c(Cl)c3)c2CC1(C)C (single isomer, unassigned) [Compound 134, N-(3-Chloro-4-fluorophenyl)-7-fluoro-2,2-dimethyl-1-(3-methylureido)-2,3-dihydro-1H-indene-4-carboxamide] the pEC50 was 6.44.
Compound CNC(=O)NC1COc2c(C(=O)Nc3ccc(F)c(Cl)c3)ccc(F)c21 (single isomer, unassigned) [Compound 189, N-(3-Chloro-4-fluorophenyl)-4-fluoro-3-(3-methylureido)-2,3-dihydrobenzofuran-7-carboxamide] has a pEC50 of 6.35.
For COC(=O)NC1CSc2c(C(=O)Nc3ccc(F)c(F)c3)ccc(F)c21 (centres unmarked) [Compound 57, O-Methyl, N-(7-((3,4-difluorophenyl)carbamoyl)-4-fluoro-2,3-dihydrobenzo[b]thiophen-3-yl) carbamate], the pEC50 was < 4.60.
Work on CNC(=O)NC1COc2c(C(=O)Nc3ccc(F)c(F)c3)cccc21 (single isomer, unassigned) [Compound 8, N-(3,4-difluorophenyl)-3-(3-methylureido)-2,3-dihydrobenzofuran-7-carboxamide] yielded a pEC50 of 4.64.
